Assay results: patent US6737383B1, “Herbicidal oxadiazolidines” (priority 1999, dated 2004)

Key:
[1] = system: bedstraw; experiment: Test B pre/postemergence bedstraw; assay type: in vivo, Galium aparine; conditions: for Bedstraw plant response rating: Rate 500 g/ha
Summary of the method: (§1)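 Herbicidal effect was estimated by eye on a ten-point control scale after plants spent twelve to sixteen days in a greenhouse following soil or foliar treatment. Foliar sprays targeted plants at one to four leaves; all doses were formulated in a non-phytotoxic solvent with surfactant.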

[2] = system: blackgrass; experiment: Test B pre/postemergence blackgrass; assay type: in vivo, Alopecurus myosuroides
Text: (§2) Seeds of bedstraw (Galium aparine), blackgrass (Alopecurus myosuroides), surinam grass (Brachiaria decumbens), cocklebur (Xanthium strumarium), corn (Zea mays), crabgrass (Digitaria sanguinalis), giant foxtail (Setaria faberii), morningglory (Ipomoea hederacea), pigweed (Amaranthus retroflexus), rape (Brassica napus), soybean (Glycine max), sugar beet (Beta vulgaris), velvetleaf (Abutilon theophrasti), wheat (Triticum aestivum), wild oat (Avena fatua) and purple nutsedge (Cyperus rotundus) tubers were planted and treated preemnergence with test chemicals formulated in a non-phytotoxic solvent mixture which included a surfactant.
(§3) At the same time, these crop and weed species were also treated with postemergence applications of test chemicals formulated in the same manner. Plants ranged in height from 2 to 18 cm (1- to 4-leaf stage) for postemergence treatments. Plant species in the flood test consisted of rice (Oryza sativa), smallflower flatsedge (Cyperus difformis), duck salad (Heteranthera limosa) and bamyardgrass (Echinochloa crus-galli) grown to the 2-leaf stage for testing. Treated plants and controls were maintained in a greenhouse for twelve to sixteen days, after which all species were compared to controls and visually evaluated. Plant response ratings, summarized in Table B, are based on a scale of 0 to 10 where 0 is no effect and 10 is complete control. A dash (−) response means no test result.

[3] = system: surinam grass; experiment: Test B pre/postemergence surinam grass; assay type: in vivo, Brachiaria decumbens
Text: as §2, §3

[4] = system: cocklebur; experiment: Test B pre/postemergence cocklebur; assay type: in vivo, Xanthium strumarium
Text: as §2, §3

[5] = system: corn; experiment: Test B pre/postemergence corn; assay type: in vivo, Zea mays
Text: as §2, §3

[6] = system: crabgrass; experiment: Test B pre/postemergence crabgrass; assay type: in vivo, Digitaria sanguinalis
Text: as §2, §3

[7] = system: giant foxtail; experiment: Test B pre/postemergence giant foxtail; assay type: in vivo, Setaria faberii
Text: as §2, §3

[8] = system: morningglory; experiment: Test B pre/postemergence morningglory; assay type: in vivo, Ipomoea hederacea
Text: as §2, §3

[9] = system: pigweed; experiment: Test B pre/postemergence pigweed; assay type: in vivo, Amaranthus retroflexus
Text: as §2, §3

[10] = system: rape; experiment: Test B pre/postemergence rape; assay type: in vivo, Brassica napus
Text: as §2, §3

[11] = system: soybean; experiment: Test B pre/postemergence soybean; assay type: in vivo, Glycine max
Text: as §2, §3

[12] = system: sugar beet; experiment: Test B pre/postemergence sugar beet; assay type: in vivo, Beta vulgaris
Text: as §2, §3

[13] = system: velvetleaf; experiment: Test B pre/postemergence velvetleaf; assay type: in vivo, Abutilon theophrasti
Text: as §2, §3

[14] = system: wheat; experiment: Test B pre/postemergence wheat; assay type: in vivo, Triticum aestivum
Text: as §2, §3

[15] = system: wild oat; experiment: Test B pre/postemergence wild oat; assay type: in vivo, Avena fatua
Summary of the method: as §1

[16] = system: purple nutsedge; experiment: Test B pre/postemergence purple nutsedge; assay type: in vivo, Cyperus rotundus
Text: as §2, §3

[17] = Preemergence, Rate 62 g/ha, scale 0 to 10, 0 is no effect, 10 is complete control
[18] = Preemergence, Rate 125 g/ha, scale 0 to 10 (0 no effect, 10 complete control)
[19] = Preemergence, Rate 250 g/ha, scale of 0 to 10 where 0 is no effect and 10 is complete control
[20] = Postemergence, Rate 62 g/ha, scale 0 to 10, 0 is no effect, 10 is complete control
[21] = Postemergence, Rate 250 g/ha, scale 0 to 10, 0 no effect, 10 complete control
[22] = Preemergence, Rate 500 g/ha, scale 0 (no effect) to 10 (complete control)
[23] = Rate 125 g/ha, Postemergence, scale 0 to 10, 0 no effect, 10 complete control
[24] = Rate 500 g/ha, Postemergence, 0 to 10 scale (0 no effect, 10 complete control)

## Cc1ccccc1-n1c(=O)on(C(=O)N(c2ccc(C(F)(F)F)cc2)C(C)C)c1=O [Compound 39]
[1]; [17]
  Plant response rating, Bedstraw: 0
[1]; [18]
  Plant response rating, Bedstraw: 0
[1]; [19]
  Plant response rating, Bedstraw: 0
[1]; Preemergence, scale 0 (no effect) to 10 (complete control)
  Bedstraw plant response rating: 0
[1]; Postemergence, 0 to 10 scale (0 no effect, 10 complete control)
  Bedstraw plant response rating: 0
[2]; [20]
  Blackgrass plant response rating: 0
[2]; [21]
  Blackgrass plant response rating: 0
[2]; [17]
  Plant response rating, Blackgrass: 0
[2]; [18]
  Plant response rating, Blackgrass: 0
[2]; [19]
  Plant response rating, Blackgrass: 0
[2]; [22]
  Blackgrass plant response rating: 0
[2]; [23]
  Blackgrass plant response rating: 0
[2]; [24]
  Blackgrass plant response rating: 0
[3]; [20]
  B. signalgrass plant response rating: 0
[3]; [21]
  B. signalgrass plant response rating: 0
[3]; [17]
  Plant response rating, B. signalgrass: 0
[3]; [18]
  Plant response rating, B. signalgrass: 0
[3]; [19]
  Plant response rating, B. signalgrass: 0
[3]; [22]
  B. signalgrass plant response rating: 0
[3]; [23]
  B. signalgrass plant response rating: 0
[3]; [24]
  B. signalgrass plant response rating: 0
[4]; [20]
  Cocklebur plant response rating: 0
[4]; [21]
  Cocklebur plant response rating: 0
[4]; [17]
  Plant response rating, Cocklebur: 0
[4]; [18]
  Plant response rating, Cocklebur: 0
[4]; [19]
  Plant response rating, Cocklebur: 0
[4]; [22]
  Cocklebur plant response rating: 0
[4]; [23]
  Cocklebur plant response rating: 0
[4]; [24]
  Cocklebur plant response rating: 0
[5]; [20]
  Corn plant response rating: 0
[5]; [21]
  Corn plant response rating: 0
[5]; [17]
  Plant response rating, Corn: 0
[5]; [18]
  Plant response rating, Corn: 0
[5]; [19]
  Plant response rating, Corn: 0
[5]; [22]
  Corn plant response rating: 0
[5]; [23]
  Corn plant response rating: 0
[5]; [24]
  Corn plant response rating: 0
[6]; [20]
  Crabgrass plant response rating: 0
[6]; [21]
  Crabgrass plant response rating: 3
[6]; [17]
  Plant response rating, Crabgrass: 0
[6]; [18]
  Plant response rating, Crabgrass: 3
[6]; [19]
  Plant response rating, Crabgrass: 5
[6]; [22]
  Crabgrass plant response rating: 6
[6]; [23]
  Crabgrass plant response rating: 0
[6]; [24]
  Crabgrass plant response rating: 4
[7]; [20]
  Giant foxtail plant response rating: 0
[7]; [21]
  Giant foxtail plant response rating: 0
[7]; [17]
  Plant response rating, Giant foxtail: 0
[7]; [18]
  Plant response rating, Giant foxtail: 0
[7]; [22]
  Giant foxtail plant response rating: 10
[7]; [23]
  Giant foxtail plant response rating: 0
[7]; [24]
  Giant foxtail plant response rating: 0
[8]; [20]
  Morningglory plant response rating: 0
[8]; [21]
  Morningglory plant response rating: 0
[8]; [17]
  Plant response rating, Morningglory: 0
[8]; [18]
  Plant response rating, Morningglory: 0
[8]; [19]
  Plant response rating, Morningglory: 0
[8]; [22]
  Morningglory plant response rating: 0
[8]; [23]
  Morningglory plant response rating: 0
[8]; [24]
  Morningglory plant response rating: 0
[9]; [20]
  Redroot pigweed plant response rating: 0
[9]; [21]
  Redroot pigweed plant response rating: 0
[9]; [17]
  Plant response rating, Redroot pigweed: 0
[9]; [18]
  Plant response rating, Redroot pigweed: 5
[9]; [19]
  Plant response rating, Redroot pigweed: 6
[9]; [22]
  Redroot pigweed plant response rating: 6
[9]; [23]
  Redroot pigweed plant response rating: 0
[9]; [24]
  Redroot pigweed plant response rating: 0
[10]; [20]
  Rape plant response rating: 0
[10]; [21]
  Rape plant response rating: 0
[10]; [17]
  Plant response rating, Rape: 2
[10]; [18]
  Plant response rating, Rape: 0
[10]; [19]
  Plant response rating, Rape: 0
[10]; [22]
  Rape plant response rating: 0
[10]; [23]
  Rape plant response rating: 0
[10]; [24]
  Rape plant response rating: 0
[11]; [20]
  Soybean plant response rating: 3
[11]; [21]
  Soybean plant response rating: 4
[11]; [17]
  Plant response rating, Soybean: 0
[11]; [18]
  Plant response rating, Soybean: 0
[11]; [19]
  Plant response rating, Soybean: 0
[11]; [22]
  Soybean plant response rating: 0
[11]; [23]
  Soybean plant response rating: 4
[12]; [20]
  Sugarbeets plant response rating: 0
[12]; [21]
  Sugarbeets plant response rating: 0
[12]; [17]
  Plant response rating, Sugarbeets: 2
[12]; [18]
  Plant response rating, Sugarbeets: 0
[12]; [19]
  Plant response rating, Sugarbeets: 0
[12]; [22]
  Sugarbeets plant response rating: 0
[12]; [23]
  Sugarbeets plant response rating: 0
[13]; [21]
  Velvetleaf plant response rating: 0
[13]; [17]
  Plant response rating, Velvetleaf: 0
[13]; [18]
  Plant response rating, Velvetleaf: 0
[13]; [19]
  Plant response rating, Velvetleaf: 0
[13]; [22]
  Velvetleaf plant response rating: 0
[13]; [23]
  Velvetleaf plant response rating: 0
[14]; [20]
  Wheat plant response rating: 0
[14]; [21]
  Wheat plant response rating: 0
[14]; [17]
  Plant response rating, Wheat: 0
[14]; [18]
  Plant response rating, Wheat: 0
[14]; [19]
  Plant response rating, Wheat: 0
[14]; [22]
  Wheat plant response rating: 0
[14]; [23]
  Wheat plant response rating: 0
[15]; [20]
  Wild oats plant response rating: 0
[15]; [21]
  Wild oats plant response rating: 0
[15]; [18]
  Plant response rating, Wild oats: 0
[15]; [19]
  Plant response rating, Wild oats: 0
[15]; [22]
  Wild oats plant response rating: 0
[15]; [23]
  Wild oats plant response rating: 0
[16]; [20]
  Nutsedge plant response rating: 0
[16]; [21]
  Nutsedge plant response rating: 0
[16]; [17]
  Plant response rating, Nutsedge: 0
[16]; [18]
  Plant response rating, Nutsedge: 0
[16]; [19]
  Plant response rating, Nutsedge: 0
[16]; [22]
  Nutsedge plant response rating: 0
[16]; [23]
  Nutsedge plant response rating: 0
[16]; [24]
  Nutsedge plant response rating: 0
